Where “and” joins values, the source holds several entries; their conditions need not be identical. Equal entries are not always repeated. Where two headings read alike, the source gives them in different places.
Legend:
[1] = tested on: T. aureum-derived Δ5 desaturase; type: cell-based, Thraustochytrium aureum; details: S. cerevisiae expressing TauΔ5des, (product × 100)/(substrate + product)
Description: In order to verify that the acquired gene was Δ5 desaturase, overexpression experiment was conducted using a budding yeast S. cerevisiae as a host. First, the acquired gene was incorporated at the EcoRI/XhoI site of a yeast vector pYES2/CT (Invitrogen) to construct an expression vectorpYΔ5des. The constructed expression vector pY5Δdes was then introduced into S. cerevisiae, and GC analysis was performed after extracting and methylating the transfectant fatty acids obtained by using the lithium acetate technique. A gas chromatograph GC-2014 (Shimadzu Corporation) was used for the GC analysis, which was performed under the following conditions. Column: HR-SS-10 (30 m×0.25 mm; Shinwa Chemical Industries Ltd.), column temperature: 150° C.→(5° C./min)→220° C. (10 min), carrier gas: He (1.3 mL/min). GC-17A and GCMS-QP-5000 (Shimadzu Corporation) were used for GC-MS analysis, which was performed using a DB-1 capillary column (0.25 mmi.d.×30 m, film thickness 0.25 μm; Agilent) under the following conditions: column temperature 160° C.→(4° C./min)→260° C., injector port temperature 250° C. For peaks that caused troubles in the analyses, the fatty acids were analyzed after picolinyl esterification, using the same apparatuses and columns under the temperature condition 240° C.→(2.5° C./min)→260° C. (15 min)→(2.5° C./min)→280° C.

[2] = tested on: A. limacinum wild-type strain; assay: G418 resistance on PDA agar plate, wild-type strain; type: cell-based, Aurantiochytrium limacinum mh0186; details: 25° C., 2 days
Description: (§1) The transfectants were cultured in 0.5 mg/ml G418-containing GY liquid medium. The wild-type strain was cultured in GY liquid medium containing no G418. The culture fluids of these strains were spotted in 10-μl portions on PDA agar plate media containing G418 (0, 0.2, 0.5, 1, 2, 4 mg/ml), and growth on the agar plate media was observed after culturing the cells at 25° C. for 2 days. It was found as a result that the proliferation was inhibited at 0.2 mg/ml G418 in the wild-type strain, whereas the transfectants proliferated even in the presence of 4 mg/ml G418 (FIG. 13A). Further, there was no change in G418 resistance, and proliferation was observed even at a G418 concentration of 32 mg/ml in a similar experiment conducted with PDA agar plate media containing G418 (0, 2, 4, 8, 16, 32 mg/ml) after subculturing the transfectants five times in a GY liquid medium containing no G418 (FIG. 13B).

[3] = tested on: A. limacinum transfectants; assay: G418 resistance on PDA agar plate, ub-Neo^r transfectants; type: cell-based, Aurantiochytrium limacinum mh0186
Description: as §1

[4] = tested on: Thraustochytrium aureum-derived Δ5 desaturase; assay: Fatty acid composition of Δ5 desaturase-introduced Aurantiochytrium sp. mh0186 (mhΔ5neo^r), GC analysis; type: cell-based; details: host mh0186; 0.1 mM ETA (to EPA) or DGLA (to AA) in medium
Description: The transformed clone obtained in Example 6, (3), v. was cultured for 3 days, and mhneo^r and mhΔ5neo^r were analyzed by GC analysis after extracting the fatty acid methyl ester. Separately, 0.1 mM ETA or DGLA, exogenous fatty acids used as a substrate by Δ5 desaturase, was added to medium for incorporation into Labyrinthula, and GC analysis was performed after extracting the fatty acids as in the overexpression experiment using yeast. A gas chromatograph GC-2014 (Shimadzu Corporation) was used for the GC analysis, which was performed under the following conditions. Column: HR-SS-10 (30 m×0.25 mm; Shinwa Chemical Industries Ltd.), column temperature: 150° C.→(5° C./min)→220° C. (10 min), carrier gas: He (1.3 mL/min).
ETA or DGLA used as a substrate by Δ5 desaturase was also added to medium at 0.1 mM for incorporation into Labyrinthula. As a result, the precursor substances converted into EPA and AA in Labyrinthula, and the content increased, as observed in the Δ5 desaturase expression experiment using yeast (Tables 9 and 10). […] This experiment was repeated in three or more confirmatory experiments to confirm reproducibility. All experiments produced the same results.

[5] = tested on: Saccharomyces cerevisiae (pYES2/CT, mock); assay: Mock (pYES2/CT) introduced yeast, GC analysis of fatty acids; type: cell-based; details: 100 × product/(product + substrate)
Description: By using a plasmid containing the full length of the P. pyriformis-derived Δ12 desaturase gene as a template, a PCR was performed with primers Pry-F (SEQ ID NO: 60 in the Sequence Listing) and Pyr-R (SEQ ID NO: 61 in the Sequence Listing), using a PrimeSTAR GC polymerase kit (Takara Bio). The PCR added a HindIII restriction enzyme site and an XbaI restriction enzyme site at the both ends. The amplified fragments were incorporated in a pGEM-T-Easy vector (Promega), and sequence analysis was performed. […] As a result, a Δ12 desaturase gene expression vector pYpΔ12Des was constructed. […] For peaks that caused troubles in the analyses, the fatty acids were analyzed after picolinyl esterification, using the same apparatuses and columns under the temperature condition 240° C.→(2.5° C./min)→260° C. […]
In order to verify that the Δ12 desaturase was encoded by the acquired gene, an expression vector was constructed, and an expression experiment was conducted using a budding yeast S. cerevisiae (Invitrogen) as a host. […] The conversion efficiency from oleic acid to linoleic acid was 23.5±1.23%, as calculated according to the following equation. […]

CC/C=C\C/C=C\C/C=C\CCCCCCCC(=O)O [18:3^Δ9,12,15, α-linolenic acid]
Percentage of substrate converted (%) [1]: 0.0%

Eicosatrienoic acid [C20:3n-3 Eicosatrienoic acid]
Percentage of substrate converted (%) [1]: 0.0%

CN[C@@H]1[C@@H](O)[C@@H](O[C@@H]2[C@@H](O)[C@H](O[C@H]3O[C@H]([C@@H](C)O)[C@@H](O)[C@H](O)[C@H]3N)[C@@H](N)C[C@H]2N)OC[C@]1(C)O [G418]
G418 concentration at which proliferation was inhibited [2]: 0.2 mg/mL | G418 concentration at which proliferation was still observed ([3]; PDA agar plate, 25° C., 2 days, highest tested 4 mg/ml): 4 mg/mL | G418 concentration at which proliferation was still observed ([3]; after subculturing five times without G418, highest tested 32 mg/ml): 32 mg/mL

Eicosadienoic acid [C20:2n-6 Eicosadienoic acid]
Percentage of substrate converted (%) [1]: 0.0%

CCCCC/C=C\C/C=C\C/C=C\CCCCCCC(=O)O [DGLA, dihomo-γ-linolenic acid]
Percentage of substrate converted (%) [1]: 27% | Percentage of substrate converted (%) ([1]; listed as C20:3n-6 Dihomo-g-linolenic acid (DGLA)): 27.0% | Conversion efficiency of the precursor substance in Labyrinthula [4]: 63% and 62.9%

CCCCC/C=C\C/C=C\CCCCCCCC(=O)O [18:2^Δ9,12, linoleic acid]
Percentage of substrate converted (%) [1]: 0.0%

eicosatetraenoic acid [ETA]
Percentage of substrate converted (%) [1]: 32% | Percentage of substrate converted (%) ([1]; listed as C20:4n-3 Eicosatetraenoic acid (ETA)): 32.0% | Conversion efficiency of the precursor substance in Labyrinthula [4]: 75% and 75.2%

CCCCCC/C=C\CCCCCCCC(=O)O [16:1^Δ9]
Conversion efficiency (%) [5]: 0%

Source: patent publication US10815505B2, “Microbial oil extracted from stramenopiles” (priority 2009, dated 2020)
